Where two headings read alike, the source gives them in different places.
Tests used:
Type in all cases: in vivo
Pyricularia oryzae = test: whole plant or invertebrate; conditions: for pest or weed control at 0.05 ppm / pest or weed control at 0.1 ppm: Pyricularia oryzae, read-out: Observed Efficacy; for Observed Efficacy: single compound, preventive spray, rice
Alternaria solani = Alternaria solani test in tomato (preventive, glasshouse); conditions: for pest or weed control at 0.05 ppm / pest or weed control at 0.1 ppm: Alternaria solani
Erysiphe cichoracearum = Erysiphe cichoracearum test in cucumber (preventive, glasshouse); conditions: single compound; for pest or weed control at 0.05 ppm / pest or weed control at 0.1 ppm: Golovinomyces cichoracearum, read-out: Observed Efficacy (%)
Phakopsora pachyrhizi = Phakopsora pachyrhizi test in soybean (preventive, glasshouse); conditions: single compound; for pest or weed control at 0.05 ppm / pest or weed control at 0.1 ppm: Phakopsora pachyrhizi, read-out: Observed Efficacy (%)
Botrytis cinerea = Botrytis cinerea test in tomato (preventive, glasshouse); conditions: single compound
[1] = single compound, 0.05 ppm, preventive spray, read-out: Observed Efficacy (%)
[2] = single compound, 0.1 ppm, preventive spray, read-out: Observed Efficacy (%)
[3] = Table B3, single compound, Conc. 0.05 ppm, preventive
[4] = Table B3, single compound, Conc. 0.1 ppm, preventive
[5] = Table B4, single compound, Conc. 0.05 ppm, preventive
[6] = Table B4, single compound, Conc. 0.1 ppm, preventive
[7] = single compound, 0.05 ppm, preventive
[8] = single compound, 0.1 ppm, preventive
[9] = 0.05 ppm, preventive spray on cucumber
[10] = 0.1 ppm, preventive spray on cucumber
[11] = 0.05 ppm, preventive spray on soybean
[12] = 0.1 ppm, preventive spray on soybean
[13] = Conc. 0.05 ppm, soybean, preventive, Table D4
[14] = Conc. 0.1 ppm, soybean, preventive, Table D4
[15] = Conc. 0.1 ppm, soybean, preventive, Table D5
[16] = Botrytis cinerea, Conc. 0.05 ppm, preventive spray on tomato, % control vs untreated, read-out: Observed Efficacy (%)
[17] = Botrytis cinerea, Conc. 0.1 ppm, preventive spray on tomato, % control vs untreated, read-out: Observed Efficacy (%)
[18] = Table F4, Conc. 0.05 ppm, Botrytis cinerea in tomato, preventive
[19] = Table F4, Conc. 0.1 ppm, Botrytis cinerea in tomato, preventive
[20] = Table F5, Conc. 0.05 ppm, Botrytis cinerea in tomato, preventive
[21] = Table F5, Conc. 0.1 ppm, Botrytis cinerea in tomato, preventive
[22] = single compound, Conc. 0.05 ppm, preventive spray, read-out: Observed Efficacy
[23] = single compound, Conc. 0.1 ppm, preventive spray, read-out: Observed Efficacy
[24] = Conc. 0.05 ppm, soybean, preventive, Table D5
[25] = single compound, 0.05 ppm, preventive spray
[26] = single compound, 0.1 ppm, preventive spray
[27] = single compound, Conc. 0.1 ppm, preventive spray
[28] = Conc. 0.05 ppm, preventive spray on tomato, % control vs untreated
[29] = Conc. 0.1 ppm, preventive spray on tomato, % control vs untreated
[30] = Table F4, Conc. 0.1 ppm, Botrytis cinerea in tomato, preventive, read-out: Observed Efficacy (%)

Molecule	pest or weed control at 0.05 ppm (Pyricularia oryzae)	pest or weed control at 0.05 ppm (Alternaria solani; [1])	pest or weed control at 0.1 ppm (Alternaria solani; [2])	Observed Efficacy (%) (Alternaria solani; [3])	Observed Efficacy (%) (Alternaria solani; [4])	Observed Efficacy (%) (Alternaria solani; [5])	Observed Efficacy (%) (Alternaria solani; [6])	Observed Efficacy (%) (Alternaria solani; [7])	Observed Efficacy (%) (Alternaria solani; [8])	Observed Efficacy (%) (Erysiphe cichoracearum; [9])	Observed Efficacy (%) (Erysiphe cichoracearum; [10])	Observed Efficacy (%) (Phakopsora pachyrhizi; [13])	Observed Efficacy (%) (Phakopsora pachyrhizi; [14])	pest or weed control at 0.05 ppm (Botrytis cinerea; [16])	Observed Efficacy (%) (Botrytis cinerea; [18])	Observed Efficacy (%) (Botrytis cinerea; [19])	pest or weed control at 0.1 ppm (Pyricularia oryzae)	pest or weed control at 0.05 ppm (Alternaria solani; [22])	pest or weed control at 0.1 ppm (Alternaria solani; [23])	Observed Efficacy (%) (Botrytis cinerea; [28])	further results
CC1CC(C)(C)c2c(F)ccc(NC(=O)c3cn(C)nc3C(F)F)c21 (centres unmarked) [Fluindapyr, 3-(difluoromethyl)-N-(7-fluoro-1,1,3-trimethyl-2,3-dihydro-1H-inden-4-yl)-1-methyl-1H-pyrazole-4-carboxamide]	11%	14%	29%	14%	29%	14%	29%	14%	29%	29%	38%	20%	30%	27%	27%	41%	–	–	–	–	pest or weed control at 0.05 ppm (Erysiphe cichoracearum; 0.05 ppm, cucumber, preventive): 29%; pest or weed control at 0.1 ppm (Erysiphe cichoracearum; 0.1 ppm, cucumber, preventive): 38%; pest or weed control at 0.05 ppm (Phakopsora pachyrhizi; [11]): 20%; pest or weed control at 0.1 ppm (Phakopsora pachyrhizi; [12]): 30%; Observed Efficacy (%) (Phakopsora pachyrhizi; [15]): 30%; pest or weed control at 0.1 ppm (Botrytis cinerea; [17]): 41%; Observed Efficacy (%) (Botrytis cinerea; [20]): 27%; Observed Efficacy (%) (Botrytis cinerea; [21]): 41%
CC(C)(C)C(O)(CCc1ccc(Cl)cc1)Cn1cncn1 (centres unmarked) [Tebuconazole, tebuconazole]	17%	34%	54%	34%	54%	34%	–	34%	54%	–	–	38%	44%	35%	–	–	36%	34%	54%	–	pest or weed control at 0.05 ppm (Erysiphe cichoracearum; [9]): 29%; pest or weed control at 0.05 ppm (Phakopsora pachyrhizi; [11]): 38%; pest or weed control at 0.1 ppm (Phakopsora pachyrhizi; [12]): 44%; Observed Efficacy (%) (Phakopsora pachyrhizi; [24]): 38%; Observed Efficacy (%) (Phakopsora pachyrhizi; [15]): 44%; pest or weed control at 0.1 ppm (Botrytis cinerea; [17]): 38%
mancozeb	–	–	–	14%	16%	14%	16%	14%	16%	24%	29%	12%	15%	–	19%	24%	–	–	–	19%	Observed Efficacy (%) (Alternaria solani; [25]): 14%; Observed Efficacy (%) (Alternaria solani; [26]): 16%; Observed Efficacy (Alternaria solani; [27]): 16%; Observed Efficacy (%) (Erysiphe cichoracearum; 0.05 ppm, cucumber, preventive): 24%; Observed Efficacy (%) (Erysiphe cichoracearum; 0.1 ppm, cucumber, preventive): 29%; Observed Efficacy (%) (Phakopsora pachyrhizi; [11]): 12%; Observed Efficacy (%) (Phakopsora pachyrhizi; [12]): 15%; Observed Efficacy (%) (Phakopsora pachyrhizi; [24]): 12%; Observed Efficacy (%) (Phakopsora pachyrhizi; [15]): 15%; Observed Efficacy (%) (Botrytis cinerea; [29]): 24%
COC(=O)N(OC)c1ccccc1COc1ccn(-c2ccc(Cl)cc2)n1 [Pyraclostrobin, pyraclostrobin]	16%	21%	28%	–	28%	–	–	–	–	–	24%	–	–	–	–	–	24%	21%	28%	–	pest or weed control at 0.05 ppm (Erysiphe cichoracearum; [9]): 21%; pest or weed control at 0.1 ppm (Erysiphe cichoracearum; 0.1 ppm, cucumber, preventive): 24%; pest or weed control at 0.05 ppm (Botrytis cinerea; Table F4, Conc. 0.05 ppm, Botrytis cinerea in tomato, preventive, read-out: Observed Efficacy (%)): 38%; pest or weed control at 0.1 ppm (Botrytis cinerea; [30]): 43%
CC(O)(Cn1cncn1)c1ccc(Oc2ccc(Cl)cc2)cc1C(F)(F)F (centres unmarked) [Mefentrifluconazole, mefentrifluconazole]	–	–	–	12%	26%	12%	26%	12%	26%	21%	24%	–	–	–	31%	38%	–	–	–	31%	Observed Efficacy (Pyricularia oryzae; Conc. 0.05 ppm): 21%; Observed Efficacy (Pyricularia oryzae; Conc. 0.1 ppm): 24%; Observed Efficacy (%) (Alternaria solani; [25]): 12%; Observed Efficacy (%) (Alternaria solani; [26]): 26%; Observed Efficacy (Alternaria solani; single compound, Conc. 0.05 ppm, preventive spray): 12%; Observed Efficacy (Alternaria solani; [27]): 26%; Observed Efficacy (%) (Erysiphe cichoracearum; 0.1 ppm, cucumber, preventive): 24%; Observed Efficacy (%) (Botrytis cinerea; [29]): 38%
CNC(=O)/C(=N/OC)c1ccccc1Oc1ccccc1 [Metaminostorbin]	–	–	–	–	–	–	–	–	–	–	–	–	–	–	–	–	–	–	–	28%	Observed Efficacy (%) (Phakopsora pachyrhizi; [11]): 45%; Observed Efficacy (%) (Phakopsora pachyrhizi; [12]): 56%; Observed Efficacy (%) (Botrytis cinerea; [29]): 40%
OC(Cc1ccccc1Cl)(Cn1nc[nH]c1=S)C1(Cl)CC1 (centres unmarked) [Prothioconazole, prothioconazole]	17%	20%	31%	20%	31%	20%	31%	20%	31%	–	–	–	–	36%	36%	44%	33%	20%	31%	–	pest or weed control at 0.01 ppm (Botrytis cinerea; Botrytis cinerea, Conc. 0.01 ppm, preventive spray on tomato, % control vs untreated, read-out: Observed Efficacy (%)): 44%; pest or weed control at 0.1 ppm (Botrytis cinerea; [17]): 44%
metiram	–	–	–	–	–	26%	30%	–	–	47%	55%	17%	37%	–	40%	57%	–	–	–	40%	Observed Efficacy (Pyricularia oryzae; Conc. 0.05 ppm): 16%; Observed Efficacy (Pyricularia oryzae; Conc. 0.1 ppm): 18%; Observed Efficacy (%) (Alternaria solani; [25]): 26%; Observed Efficacy (%) (Alternaria solani; [26]): 30%; Observed Efficacy (%) (Erysiphe cichoracearum; 0.05 ppm, cucumber, preventive): 47%; Observed Efficacy (%) (Erysiphe cichoracearum; 0.1 ppm, cucumber, preventive): 55%; Observed Efficacy (%) (Phakopsora pachyrhizi; [11]): 17%; Observed Efficacy (%) (Botrytis cinerea; [29]): 57%
O=C(Nc1ccccc1-c1ccc(Cl)cc1)c1cccnc1Cl [Boscalid, boscalid]	24%	13%	26%	13%	26%	–	–	13%	26%	24%	32%	–	32%	38%	38%	–	37%	13%	26%	–	pest or weed control at 0.05 ppm (Erysiphe cichoracearum; 0.05 ppm, cucumber, preventive): 24%; pest or weed control at 0.1 ppm (Erysiphe cichoracearum; 0.1 ppm, cucumber, preventive): 32%; pest or weed control at 0.1 ppm (Phakopsora pachyrhizi; [12]): 32%; pest or weed control at 0.1 ppm (Botrytis cinerea; [30]): 52%
N#Cc1sc2c(=O)c3ccccc3c(=O)c=2sc1C#N [Dithionon]	–	–	–	21%	26%	–	–	–	–	–	–	–	–	–	38%	45%	–	–	–	–	Observed Efficacy (%) (Botrytis cinerea; [20]): 38%; Observed Efficacy (%) (Botrytis cinerea; [21]): 45%

Reference: patent US20230413824A1, “AGROCHEMICAL COMPOSITION COMPRISING 3-SUBSTITUTED PHENYLAMIDINE COMPOUNDS AND USE THEREOF” (PI INDUSTRIES LIMITED, priority 2020, published 2023)
